Several values for one entry are separate records, joined by “and”; a condition that tells them apart may be missing. Identical values can stand only once. Like-named read-outs stand apart in the source and are kept apart here.
How the values were obtained:
[1] = system: rat osteocalcin promoter; test: OCN (osteocalcin) promoter assay; type: cell-based; conditions: RG-15 (ROS 17/2.8) cells, 48 hr treatment, Table 1
Procedure: 3. The OCN (osteocalcin) Promoter Assay
The OCN Promoter Assay is an indicator and marker for osteoporosis. […] Preferred assay results are less than 50 nM.
(3) Materials and Method for The OCN Promoter Assay:
The activation of osteocalcin by VDR ligands was evaluated in a rat osteoblast-like cell line RG-15 (ROS 17/2.8) stably expressing rat osteocalcin promoter fused with luciferase reporter gene. […] After 24 hr, cells (in DMEM/F-12 medium +2% FBS) were treated with various concentrations of compounds, dissolved in DMSO. The final DMSO concentration remained at 0.01% (v/v). After 48 hr treatment, the medium was removed, cells were lysed with 50 μl of lysis buffer (From Luciferase reporter assay system, Roche Diagnostics, Indianapolis, Ind.) and assayed for luciferase activity using the Luciferase Reporter Gene Assay kit from Boehringer Mannheim as per manufacturer's specifications.

[2] = biological target: T1, RXR-VDR heterodimer (Homo sapiens, UniProt P11473); test: RXR-VDR heterodimerization assay (SaOS-2 cells); type: cell-based; conditions: luciferase reporter, Table 1
T1 construct: Add the Gal-4-RXR-DEF and VP16-VDR-LBD; expressed in transfected cells; host or cells: SaOs-2 cells
T1 sequence (P11473 127-423 limits assumed): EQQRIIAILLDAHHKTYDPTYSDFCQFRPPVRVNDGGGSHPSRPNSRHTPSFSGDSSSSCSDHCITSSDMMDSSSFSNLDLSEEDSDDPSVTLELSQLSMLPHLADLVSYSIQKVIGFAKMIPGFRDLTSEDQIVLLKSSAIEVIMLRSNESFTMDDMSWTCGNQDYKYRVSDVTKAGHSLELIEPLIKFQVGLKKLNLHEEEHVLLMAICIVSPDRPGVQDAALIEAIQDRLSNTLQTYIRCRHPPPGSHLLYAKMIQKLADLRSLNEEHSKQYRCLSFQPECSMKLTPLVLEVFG
T1 sequence (P19793 201-462 partner limits assumed): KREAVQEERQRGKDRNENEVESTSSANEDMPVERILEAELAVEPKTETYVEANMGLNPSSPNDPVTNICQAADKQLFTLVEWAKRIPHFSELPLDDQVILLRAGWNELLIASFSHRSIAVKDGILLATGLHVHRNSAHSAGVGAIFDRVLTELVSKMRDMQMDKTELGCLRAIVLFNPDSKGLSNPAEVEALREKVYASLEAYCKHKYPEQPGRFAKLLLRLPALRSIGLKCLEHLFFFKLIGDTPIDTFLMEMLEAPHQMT
Source text: 1. The RXR-VDR Heterodimer Assay:
This assay provides the VDR activity of a test compound.
(1) Materials and Method for RXR-VDR Heterodimerization Assay:
Transfection/Treatment Media: • D-MEM Low Glucose Without Phenol Red only
Flat well Plates: • Use well plate to plate cells • Use Deep well plate sterile to make up treatment media.
Luciferase Assay Reagent: • Use Steady-Glo Luciferase Reagent from Promega (Cat #E2550) Consists of: • a. E2533 Assay Substrate, lyopholized product and • b. E2543 Assay Buffer. • Thaw at room temperature • Store Day 1: Cell Plating: • Cell Harvesting • Aspirate media from culture flask, rinse cells with HBSS and aspirate. • Add trypsin and incubate. • When cells appear detached, resuspend cells in growth media. • Transfer into a new flask with fresh growth media for passaging the cells. • Plate well plates and two extra plates A. Cell Count • Mix the cell suspension using pipette • Use Hematocytometer to count the cells • Load cell suspension onto the hemocytometer chamber • Count cells.
Step 1: DNA and Media • Add plain DMEM media to tubes for mixing the DNA • Add the Reporter gene pFR-LUC • Add the Gal-4-RXR-DEF and VP16-VDR-LBD
Step 2: FuGENE and Media • Prepare plain DMEM media in a ubes for mixing PuGENE • Add FuGENE 6 Transection Reagent • Incubate
Step 3: FuGENE, DNA and Media Complex • Add FuGENE Media complex from step 2 to DNA Media complex from step1 • Incubate
Step 4: FuGENE, DNA and Media Complex to-well plate • Add FuGENE-DNA-Media complex from step 3 to each plate • Incubate. […] Day 4: Luciferase Assay • Read the plates after drug treatment • Remove part of media from all the wells and leave remainder • Add Steady-Glo Luciferase Reagent mixture/wells • Incubate • Count each well using a Luminescence counter, Top Count NXT by Packard Set a delay between plates to reduce the background. (2) Materials and Method for The Caco-2 Cell Assay: […]

[3] = system: KERtr cells; test: Keratinocyte proliferation assay; type: cell-based, Human; conditions: BrdU incorporation
Procedure: 5. The Keratinocyte Proliferation Assay
This Assay is indicative for the treatment of psoriasis.
(5) The Keratinocyte Proliferation Assay:
KERtr cells (Human skin keratinocyte transformed with a retrovirus vector, obtained from ATCC) were plated in 96-well flat-bottomed plates (3000 cells/well) in 100 μl keratinocyte serum free medium supplemented with bovine pituitary extract in the absence of EGF (Life Technologies, Rockville, Md.) and incubated at 37° C. for two days. The cells were treated with various concentrations of VDR ligands (ten-fold serial dilution from 10,000 nM to 0.1 nM in triplicate), dissolved in 100 μl keratinocyte serum free medium supplemented with bovine pituitary extract in the absence of EGF and incubated at 37° C. for 72 hr. […] Potency values (IC50) values were determined as the concentration (nM) of compound that elicited a half-maximal response.

[4] = system: IL-10; test: IL-10 induction assay in PBMCs; type: cell-based; conditions: TPA/PHA stimulated human PBMCs
Source text: 6. The IL-10 induction Assay
This is an in vitro efficacy assay for psoriasis, abscess and adhesion. Psoriasis involves both keratinocytes and immune cells. IL-10 is a unique cytokine because it is anti-inflammatory and immunosuppressive. This assay tells us whether a VDRM is able to function as an agonist in PBMCs ([…]) or not.
(6) Materials and Method for human IL-10 Induction Assay: […]

[5] = biological target: T2, VDR (Homo sapiens, UniProt P11473); test: VDR CTF (Caco-2 cell co-transfection) assay; type: cell-based; conditions: Caco-2 cells, Gal-4-VDR-LBD co-transfection; Table 1
T2 construct: the receptor expression vector pGal-4-VDR-LBD (10 ng); expressed in transfected cells; host or cells: Caco-2 cells
T2 sequence (P11473 127-423 limits assumed): T1 sequence (P11473 127-423 limits assumed)
Procedure: 2. The Caco-2 Cell Co-transfection Assay:
The Caco-2 cell assay is an indicator for the undesirable condition of hypercalcemia. This co-transfection assay is a surrogate assay for in vivo calcemic activity of VDR ligands. […] Preferred assay results are greater than 1000 nM.
Step 4: FuGENE, DNA and Media Complex to-well plate • Add FuGENE-DNA-Media complex from step 3 to each plate • Incubate. […] Day 4: Luciferase Assay • Read the plates after drug treatment • Remove part of media from all the wells and leave remainder • Add Steady-Glo Luciferase Reagent mixture/wells • Incubate • Count each well using a Luminescence counter, Top Count NXT by Packard Set a delay between plates to reduce the background. (2) Materials and Method for The Caco-2 Cell Assay:
Caco-2 cells, grown in phenol red free, DMEM (Invitrogen, Carlsbad, Calif.) containing 10% charcoal-stripped FCS (Hyclone, Logan, Utah), were transfected with Fugene 6 reagent (Roche Diagnostics, Indianapolis, Ind.). Cells (5000/well) were plated 18 h before transfection in a 96 well plate. The Cells were transfected with Gal-4-responsive reporter pFRLuc (150 ng, Stratagene, La Jolla Calif.) and the receptor expression vector pGal-4-VDR-LBD (10 ng), along with Fugene 6 reagent (0.2 μl/well). The DNA-Fugene complex was formed by incubating the mixture for 30 min at room temperature. The cells were transfected in triplicate for 5 h, and treated with various concentrations of VDR ligands (form 0.01 nM to 10,000 nM concentration range) 18 h post-transfection. The luciferase activity was quantified using Steady-Glo reagent kit (Promega, Madison, Wis.) as per manufacturer's specifications.

[6] = Mouse hypercalcemia assay; conditions: six day hypercalcemia test, oral gavage, serum ionized calcium; Table 1
Procedure: The Mouse Hypercalcemia Assay
(§1) The Mouse Hypercalcemia Assay is a six day hypercalcemia test for toxicity and selectivity. Acceptable test results are levels greater than 300 μg/kg/day. Preferred assay results are levels greater than 1000 μg/kg/day.
(§2) (4) Materials and Method for The Mouse Hypercalcemia Assay:
(§3) Weanling, virus-antibody-free, five to six weeks old female DBF mice (Harlan, Indianapolis, Ind.) are used for all the studies. Animals are allowed to acclimate to local vivarium conditions for 2 days. […] The animals then are divided into groups with 4-5 mice per group. Different doses of test compounds prepared in 10% Ethanol and 90% sesame oil are administered to mice orally via gavage for 6 days. 1α-25(OH)2D3 0.5 μg/kg/d was also given to one group of mice as the positive control. […] Raw data of group differences is assessed by analysis of variance (ANOVA) using Fisher's protected least significant difference (PLSD) where the significance level was P<0.05.

[7] = in vivo, po
Procedure: The Mouse Hypercalcemia Assay
as §1, §2, §3

[8] = 72 hr, Table 2, read-out: Kera. Prolif. IC50

| Mouse Hypercal [7] [µg/kg/day] | IC50 ([4]; PBMC, Table 4 comparison compounds) [nM] | SMILES | EC50 [1] [nM] | EC50 [2] | IC50 [3, 8] [nM] | IC50 ([4]; Table 2) [nM] | EC50 [5] [nM] | Mouse Hypercal [6] [µg/kg/day] | EC50 ([1]; Rattus norvegicus, 48 h) [nM] | IC50 ([3]; Homo sapiens, Keratinocyte, 72 h, Table 2, read-out: Kera. Prolif. IC50) [nM] | IC50 ([3]; Homo sapiens, Keratinocyte, 72 h, Table 4 comparison compounds, read-out: Kera. Prolif. IC50) [nM] |
| --- | --- | --- | --- | --- | --- | --- | --- | --- | --- | --- | --- |
| – | – | CCc1cc(C(CC)(CC)c2ccc(C(=O)N(C)OC)o2)ccc1OCC(O)C(C)(C)C (single isomer, unassigned; enantiomer 1) [Ex. 13, 3′-[4-(2-hydroxy-3,3-dimethyl-butoxy)-3-ethylphenyl]-3′-[5-N-methoxy-N-methylamino-carbonyl-2-furanyl]pentane enantiomer 1] | 20 | 18 nM | 18 | 4.6 | 572 | >3000 | – | – | – |
| – | – | CCc1cc(C(CC)(CC)c2ccc(C(=O)N(C)C)o2)ccc1OCC(O)C(C)(C)C (single isomer, unassigned; enantiomer 2) [Ex. 11, 3′-[4-(2-hydroxy-3,3-dimethyl-butoxy)-3-ethylphenyl]-3′-[5-dimethylaminocarbonyl-2-furanyl]pentane enantiomer 2] | 20 | 17.6 nM | 18 | – | 572 | >3000 | – | – | – |
| 0.06 | – | C=C1/C(=C\C=C2/CCC[C@]3(C)[C@@H]([C@H](C)CCCC(C)(C)O)CC[C@@H]23)C[C@@H](O)C[C@@H]1O [AA, 1α,25-dihydroxyvitamin D3] | – | – | – | – | – | – | – | – | – |
| – | – | CCC(CC)(c1ccc(OCC(=O)C(C)(C)C)c(C)c1)c1ccc(C(=O)N(C)C)o1 [Ex. 1, 3′-[4-(2-oxo-3,3-dimethylbutoxy)-3-methylphenyl]-3′-[5-dimethylaminocarbonyl-2-furanyl]pentane] | 3 | 3.3 nM and 0.6 nM | – | – | 191 | >1500 | 5 | 15 | – |
| – | – | CCN(C)C(=O)c1ccc(C(CC)(CC)c2ccc(OCC(O)C(C)(C)C)c(C)c2)o1 (stereo not drawn) [Ex. 9, 3′-[4-(2-hydroxy-3,3-dimethyl-butoxy)-3-methylphenyl]-3′-[5-N-ethyl-N-methylamino-carbonyl-2-furanyl]pentane] | 30 | 16 nM | 28 | – | 616 | – | – | – | – |
| – | 0.5 | C=C1/C(=C\C=C2/CCC[C@]3(C)[C@@H]([C@H](C)/C=C/[C@@H](O)C4CC4)CC[C@@H]23)C[C@@H](O)C[C@@H]1O [FF, calcipotriol, reference compound] | – | – | – | – | – | – | – | – | 103 |

Source: US7468449B2, “Phenyl-furan compounds as vitamin D receptor modulators” (Eli Lilly and Company, priority 2003, dated 2008)
